What all share (format): cell-based
One experiment deals with Candida albicans H 29. The experiment is described as follows: Test for bacteriostatic effect (MIC) in agar medium, C. albicans. Conditions: 10^6 cells/ml, DST agar, 37° C., analysed after 1 and 2 days; combinations: % of each diol. The protocol: (§1) Staphylococcus aureus number 515×6352 and Candida albicans H 29 were obtained from the Collection in the Department of Microbiology, Sahigrenska University Hospital, Gothenburg, Sweden. The isolates were maintained on blood agar at 37° C. M. sympodialis CBS 7222 and M. globosa CBS 7966
(§2) Test for bacteriostatic effect (MIC=minimal inhitory concentration).
(§3) Each of the diols and their combination (1:1:1 volume/volume) was diluted directly with the test culture medium, Diagnostic Sensitivity test agar (DST) (Oxoid, UK) to obtain concentrations, in the test medium, of 2, 3, 4, 6, 9, and 12% volume percent of the respective diol and of 2, 3, and 4% of the respective diol in the combination.
S. aureus cells were added to the agar medium in concentrations of 10^3 and 10^5 cells/ml while C. albicans cells were added in a concentration of 10^6 cells/ml and M. sympodialis and M. globosa in a concentration of 10^7 cells/ml. Plates were incubated at 37° C. and analysed after 1 and 2 days. Each experiment was repeated. […] The MIC's for propane-1,2-diol, pentane-1,5-diol, 2-methylpentane-2,4-diol and the combination of these 3 diols are shown in the table 1.
Example 3 was performed as example 1.

Another experiment concerns M. globosa CBS 7966. The experiment is described as follows: Test for bacteriostatic effect (MIC) in agar medium, M. globosa. Conditions: 10^7 cells/ml, DST agar, 37° C., analysed after 1 and 2 days; combinations: % of each diol. As for the experimental part: (§4) Staphylococcus aureus number 515×6352 and Candida albicans H 29 were obtained from the Collection in the Department of Microbiology, […] University Hospital, Gothenburg, Sweden. The isolates were maintained on blood agar at 37° C. M. sympodialis CBS 7222 and M. globosa CBS 7966 Test for bacteriostatic effect (MIC=minimal inhitory concentration). […] Plates were incubated at 37° C. and analysed after 1 and 2 days. Each experiment was repeated.

Experiment [1] concerns Staphylococcus aureus number 515×6352. The experiment is described as follows: Test for bacteriostatic effect (MIC) in agar medium, S. aureus. Conditions: combinations: % of each diol; for MIC S. aureaus 10^3: 10^3 cells/ml; for MIC S. aureaus 10^3 / MIC S. aureaus 10^5: DST agar, 37° C., analysed after 1 and 2 days; for MIC S. aureaus 10^5: 10^5 cells/ml; for concentration that completely inhibited the growth of S. aureus: cell concentration not specified. As for the experimental part:
as §1, §2, §3
S. aureus cells were added to the agar medium in concentrations of 10^3 and 10^5 cells/ml while C. albicans cells were added in a concentration of 10^6 cells/ml and M. sympodialis and M. globosa in a concentration of 10^7 cells/ml. Plates were incubated at 37° C. and analysed after 1 and 2 days. Each experiment was repeated. […] The MIC's for propane-1,2-diol, pentane-1,5-diol, 2-methylpentane-2,4-diol and the combination of these 3 diols are shown in the table 1. […]

For a further experiment, the system named is M. sympodialis CBS 7222. The experiment is described as follows: Test for bacteriostatic effect (MIC) in agar medium, M. sympodialis. The following applies: 10^7 cells/ml, DST agar, 37° C., analysed after 1 and 2 days; combinations: % of each diol. The protocol: as §4

From patent US9757596B2, “Composition comprising at least 3 different diols” (AMBRIA DERMATOLOGY AB, priority 2004, dated 2017) come the findings set out here.

Molecules are shown by their SMILES.

In the case of `CC(O)CC(C)(C)O` (stereo not drawn) [2-Methyl pentane-2,4-diol], in the experiment with Candida albicans H 29, the “MIC C. albicans 10^6” value amounted to 4%. Further, the “MIC M. globosa” value in the experiment on M. globosa CBS 7966 amounted to 3%. In addition, in experiment [1], the “MIC S. aureaus 10^3” value amounted to 12%, the “MIC S. aureaus 10^5” value is 12% and the “concentration that completely inhibited the growth of S. aureus” value was found to be 12%. Moreover, the “MIC M. sympodialis” value in the experiment with M. sympodialis CBS 7222 came to 3%.

For `CC(O)CCO` (stereo not drawn) [Butane-1,3-diol], the “MIC C. albicans 10^6” value in the experiment on Candida albicans H 29 amounted to 8%. Besides, in the experiment with M. globosa CBS 7966, the “MIC M. globosa” value was 10%. Moreover, in experiment [1], the “MIC S. aureaus 10^3” value is reported as greater than 12% and the “MIC S. aureaus 10^5” value is reported as greater than 12%. Further, the “MIC M. sympodialis” value in the experiment with M. sympodialis CBS 7222 turned out to be 10%.

As for `CCO` [Ethanol], the “MIC C. albicans 10^6” value in the experiment on Candida albicans H 29 was found to be 8%. Moreover, the “MIC M. globosa” value with M. globosa CBS 7966 was found to be 10%. In experiment [1], the “MIC S. aureaus 10^3” value is greater than 12% and the “MIC S. aureaus 10^5” value is recorded as greater than 12%. Besides, in the experiment with M. sympodialis CBS 7222, the “MIC M. sympodialis” value turned out to be 10%.

Regarding `OCCCCCO` [Pentane-1,5-diol], the “MIC C. albicans 10^6” value in the experiment with Candida albicans H 29 worked out at 4%. Moreover, the “MIC M. globosa” value with M. globosa CBS 7966 is given as 3%. Besides, in experiment [1], the “MIC S. aureaus 10^3” value was 12%, the “MIC S. aureaus 10^5” value is reported as 12% and the “concentration that completely inhibited the growth of S. aureus” value amounted to 12%. For the same compound, in the experiment on M. sympodialis CBS 7222, the “MIC M. sympodialis” value was found to be 3%.

With `CC(O)CO` (stereo not drawn) [Propane-1,2-diol], the “MIC C. albicans 10^6” value with Candida albicans H 29 was found to be 9%. For the same compound, in the experiment with M. globosa CBS 7966, the “MIC M. globosa” value is listed as 10%. For the same compound, in experiment [1], the “MIC S. aureaus 10^3” value is greater than 12% and the “MIC S. aureaus 10^5” value is given as greater than 12%. Also, the “MIC M. sympodialis” value in the experiment with M. sympodialis CBS 7222 was determined as 10%.
